ChEMBL document CHEMBL1125043, “Synthesis and biological activity of an acyclic analogue of 5,6,7,8-tetrahydrofolic acid, N-[4-[[3-(2,4-diamino-1,6-dihydro-6-oxo-5- pyrimidinyl)propyl]amino]-benzoyl]-L-glutamic acid” (J Med Chem, 1990)

Assays:
[1] = biological target: T1, Bifunctional purine biosynthesis protein ATIC (Mus musculus, UniProt Q9CWJ9); assay: Hexaglutamyl homologue inhibition activity against the AICAR formyltransferase was determined against L cell; format: cell-based
T1 sequence (Q9CWJ9 whole entry): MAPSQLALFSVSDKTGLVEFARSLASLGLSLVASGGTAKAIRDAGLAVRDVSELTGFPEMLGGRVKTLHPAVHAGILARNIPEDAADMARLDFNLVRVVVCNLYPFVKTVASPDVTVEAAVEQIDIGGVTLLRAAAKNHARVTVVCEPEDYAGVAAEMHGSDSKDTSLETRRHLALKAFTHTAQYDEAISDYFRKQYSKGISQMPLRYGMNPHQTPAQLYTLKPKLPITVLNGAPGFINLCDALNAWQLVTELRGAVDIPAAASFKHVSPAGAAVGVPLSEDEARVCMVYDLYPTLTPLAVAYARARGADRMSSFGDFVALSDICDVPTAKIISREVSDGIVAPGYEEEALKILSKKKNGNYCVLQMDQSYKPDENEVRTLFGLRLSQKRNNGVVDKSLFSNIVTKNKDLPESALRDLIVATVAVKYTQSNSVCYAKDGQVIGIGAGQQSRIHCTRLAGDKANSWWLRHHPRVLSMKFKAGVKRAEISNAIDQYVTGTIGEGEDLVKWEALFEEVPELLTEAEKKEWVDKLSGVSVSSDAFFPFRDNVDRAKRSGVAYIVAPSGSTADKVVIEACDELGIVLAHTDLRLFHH

[2] = biological target: T2, Bifunctional purine biosynthesis protein ATIC (Homo sapiens, UniProt P31939); assay: Hexaglutamyl homologue inhibition activity against the AICAR formyltransferase was determined against MOLT-4; format: cell-based
[3] = biological target: T1, Bifunctional purine biosynthesis protein ATIC; assay: Triglutamyl homologue inhibition activity against AICAR formyltransferase was determined against L cell; format: cell-based
[4] = biological target: T1, Bifunctional purine biosynthesis protein ATIC; assay: Diglutamyl homologue inhibition activity against the AICAR formyltransferase was determined against L cell; format: cell-based
[5] = biological target: T1, Bifunctional purine biosynthesis protein ATIC; assay: Inhibition activity against AICAR formyltransferase determined against L cell; format: cell-based
[6] = biological target: T2, Bifunctional purine biosynthesis protein ATIC; assay: Inhibition activity against AICAR formyltransferase determined against MOLT-4; format: cell-based
[7] = tested on: L cells; assay: Evaluated in vitro for ability to inhibit the L cell lines.; format: functional, cell-based; conditions: Mus musculus, L929
[8] = tested on: Detroit 98; assay: Evaluated in vitro for ability to inhibit the Detroit 98 cell lines; format: functional, cell-based; conditions: Homo sapiens
[9] = tested on: L cells; assay: Evaluated for reversal of L cell inhibition, where reversal of toxicity was evaluated by the addition of Leucovorin (0.2 uM); format: functional, Mus musculus, L929
[10] = Ratio of app Km to ral Vmax
[11] = tested on: L cells; assay: Evaluated for reversal of L cell inhibition, where reversal of toxicity was evaluated by the addition of Thymidine (20 uM); format: functional, Mus musculus, L929
[12] = species: Sus scrofa; assay: Apparent Km in uM for its activation for Hog Liver Folyl-polyglutamate synthase was determined
[13] = species: Sus scrofa; assay: Relative Vmax for its activation for Hog Liver Folyl-polyglutamate synthase was determined
[14] = tested on: L cells; assay: Evaluated for reversal of L cell inhibition, where reversal of toxicity was evaluated by the addition of Hypoxanthine (37 uM); format: functional, Mus musculus, L929
[15] = tested on: L cells; assay: Evaluated for reversal of L cell inhibition, where reversal of toxicity was evaluated by the addition of Thymidine + Hypoxanthine; format: functional, Mus musculus, L929
[16] = biological target: T3, C-1-tetrahydrofolate synthase, cytoplasmic (Mus musculus) (UniProt Q922D8); assay: Evaluated for inhibitory activity on 5,10-Methylene Tetrahydrofolate Cyclohydrolase(L cell) at folate substrate concentration of 100 uM
T3 sequence (whole entry): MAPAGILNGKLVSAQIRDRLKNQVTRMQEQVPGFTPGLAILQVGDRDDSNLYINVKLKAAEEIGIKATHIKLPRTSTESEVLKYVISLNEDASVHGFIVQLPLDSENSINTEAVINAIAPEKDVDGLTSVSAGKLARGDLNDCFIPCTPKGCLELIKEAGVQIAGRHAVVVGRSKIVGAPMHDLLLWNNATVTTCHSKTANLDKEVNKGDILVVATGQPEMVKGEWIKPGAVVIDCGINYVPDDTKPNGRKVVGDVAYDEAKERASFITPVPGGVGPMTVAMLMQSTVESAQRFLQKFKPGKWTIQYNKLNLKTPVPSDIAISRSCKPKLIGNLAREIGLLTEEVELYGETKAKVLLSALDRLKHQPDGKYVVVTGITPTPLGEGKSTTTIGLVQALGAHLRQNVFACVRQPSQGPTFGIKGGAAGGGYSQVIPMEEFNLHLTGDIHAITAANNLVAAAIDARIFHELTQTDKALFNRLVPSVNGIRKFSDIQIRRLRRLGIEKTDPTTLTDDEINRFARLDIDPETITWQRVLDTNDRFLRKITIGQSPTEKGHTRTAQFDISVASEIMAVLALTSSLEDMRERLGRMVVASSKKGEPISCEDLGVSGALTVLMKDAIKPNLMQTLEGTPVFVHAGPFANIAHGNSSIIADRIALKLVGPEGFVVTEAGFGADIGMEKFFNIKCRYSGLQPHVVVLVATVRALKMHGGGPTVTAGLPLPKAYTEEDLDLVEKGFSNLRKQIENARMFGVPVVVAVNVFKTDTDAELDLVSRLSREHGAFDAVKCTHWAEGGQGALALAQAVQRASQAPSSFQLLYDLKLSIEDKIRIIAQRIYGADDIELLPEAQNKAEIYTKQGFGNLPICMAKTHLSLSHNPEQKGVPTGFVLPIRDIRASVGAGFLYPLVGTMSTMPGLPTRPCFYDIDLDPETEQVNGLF

[17] = species: Mus musculus; assay: Evaluated for inhibitory activity on 10-formyltetrahydrofolate synthetase(L cell) at folate substrate concentration of 100 uM
[18] = biological target: T4, Serine hydroxymethyltransferase, cytosolic (Mus musculus) (UniProt P50431); assay: Evaluated for inhibitory activity on Serine hydroxymethyl transferase (Lcell) at folate substrate concentration of 160 uM
T4 sequence (whole entry): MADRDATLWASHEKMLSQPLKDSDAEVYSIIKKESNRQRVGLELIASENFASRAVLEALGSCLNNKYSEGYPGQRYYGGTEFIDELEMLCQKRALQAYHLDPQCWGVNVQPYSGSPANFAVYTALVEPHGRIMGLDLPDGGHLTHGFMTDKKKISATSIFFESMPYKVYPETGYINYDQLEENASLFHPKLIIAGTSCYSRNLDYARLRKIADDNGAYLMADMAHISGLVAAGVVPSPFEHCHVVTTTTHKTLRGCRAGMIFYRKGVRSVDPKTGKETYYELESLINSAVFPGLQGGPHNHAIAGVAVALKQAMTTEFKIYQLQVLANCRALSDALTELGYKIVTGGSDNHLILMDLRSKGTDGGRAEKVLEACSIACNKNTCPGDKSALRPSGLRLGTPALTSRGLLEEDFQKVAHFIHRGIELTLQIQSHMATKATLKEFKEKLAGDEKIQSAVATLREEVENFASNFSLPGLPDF

[19] = biological target: T5, Dihydrofolate reductase (Rattus norvegicus) (UniProt Q920D2); assay: Evaluated for inhibitory activity on Dihydrofolate reductase(rat liver) at folate substrate concentration of 45 uM
T5 sequence (whole entry): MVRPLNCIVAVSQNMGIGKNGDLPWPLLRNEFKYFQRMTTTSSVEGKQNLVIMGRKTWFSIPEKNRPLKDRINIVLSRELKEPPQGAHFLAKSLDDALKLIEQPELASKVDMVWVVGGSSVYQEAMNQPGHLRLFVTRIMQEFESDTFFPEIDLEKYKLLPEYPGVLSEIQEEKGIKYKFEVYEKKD

[20] = biological target: T3, C-1-tetrahydrofolate synthase, cytoplasmic (Mus musculus); assay: Evaluated for inhibitory activity on 5,10-Methenyl Tetrahydrofolate Cyclohydrolase(L cell) at folate substrate concentration of 100 uM
[21] = biological target: Methionine synthase (Mus musculus) (UniProt A6H5Y3); assay: Evaluated for inhibitory activity on Methionine synthase(L cell) at folate substrate concentration of 100 uM
[22] = tested on: WiDr; assay: Antitumor activity on WiDr colon adenocarcinoma cell lines; format: functional, cell-based; conditions: Homo sapiens
[23] = Diglutamyl homologue inhibition activity against the Glycinamide ribonucleotide transformylase (GAR-TFase)was determined against L cell; format: cell-based, Mus musculus
[24] = tested on: CCRF-CEM; assay: Antitumor activity on CCRF-CEM T-cell acute lymphoblastic leukemia cell lines; format: functional, cell-based; conditions: Homo sapiens
[25] = tested on: MOLT-4; assay: Antitumor activity on MOLT-4 T-cell acute lymphoblastic leukemia cell lines; format: functional, cell-based; conditions: Homo sapiens
[26] = Inhibition activity against Glycinamide ribotide formyltransferase against L cell; format: cell-based
[27] = tested on: Thymidylate synthase (Bos taurus); assay: Evaluated for inhibitory activity on Thymidylate synthase(calf thymus) at folate substrate concentration of 200 uM
[28] = biological target: T3, C-1-tetrahydrofolate synthase, cytoplasmic (Mus musculus); assay: Evaluated for inhibitory activity on 5,10-methylenetetrahydrofolate dehydrogenase(L cell) at folate substrate concentration of 100 uM
[29] = tested on: SW480; assay: Antitumor activity on SW 480 colon adenocarcinoma cell lines; format: functional, cell-based; conditions: Homo sapiens
[30] = tested on: L cells; assay: Evaluated for reversal of L cell inhibition, where reversal of toxicity was evaluated by the addition of Thymidine Hypoxanthine; format: functional, Mus musculus, L929
[31] = tested on: MCF7; assay: Antitumor activity on MCF-7 breast adenocarcinoma cell lines; format: functional, cell-based; conditions: Homo sapiens
[32] = Inhibition activity against Glycinamide ribonucleotide transformylase (GAR-TFase) against L cell; format: cell-based, Mus musculus
[33] = Hexaglutamyl homologue inhibition activity against the Glycinamide ribonucleotide transformylase (GAR-TFase) was determined against hog liver; format: tissue-based, Sus scrofa
[34] = tested on: P388; assay: Effect on P388 tumor cell growth in mice. The percentage of increased life span was determined administered 7.5 mg/kg schedule - b.i.d., days 1-3; format: functional; conditions: Mus musculus, P388, intraduodenal
[35] = Triglutamyl homologue inhibition activity against Glycinamide ribonucleotide transformylase (GAR-TFase)was determined against L cell; format: cell-based, Mus musculus
[36] = tested on: P388; assay: Effect on P388 tumor cell growth in mice. The percentage of increased life span was determined administered 5 mg/kg schedule - t.i.d., days 1-4; format: functional; conditions: Mus musculus, P388, intraduodenal
[37] = Hexaglutamyl homologue inhibition activity against the Glycinamide ribonucleotide transformylase (GAR-TFase) was determined against L cell; format: cell-based, Mus musculus
[38] = tested on: A-427; assay: Antitumor activity on A-427 lung carcinoma cell lines; format: functional, cell-based; conditions: Homo sapiens
[39] = tested on: P388; assay: Effect on P388 tumor cell growth in mice. The percentage of increased life span was determined administered 75 mg/kg schedule - QD,days1,5,9; format: functional; conditions: Mus musculus
[40] = tested on: P388; assay: Effect on P388 tumor cell growth in mice. The percentage of increased life span was determined administered 10 mg/kg schedule - t.i.d., days 1-4; format: functional; conditions: Mus musculus, P388, intraduodenal

T2 sequence (P31939 whole entry): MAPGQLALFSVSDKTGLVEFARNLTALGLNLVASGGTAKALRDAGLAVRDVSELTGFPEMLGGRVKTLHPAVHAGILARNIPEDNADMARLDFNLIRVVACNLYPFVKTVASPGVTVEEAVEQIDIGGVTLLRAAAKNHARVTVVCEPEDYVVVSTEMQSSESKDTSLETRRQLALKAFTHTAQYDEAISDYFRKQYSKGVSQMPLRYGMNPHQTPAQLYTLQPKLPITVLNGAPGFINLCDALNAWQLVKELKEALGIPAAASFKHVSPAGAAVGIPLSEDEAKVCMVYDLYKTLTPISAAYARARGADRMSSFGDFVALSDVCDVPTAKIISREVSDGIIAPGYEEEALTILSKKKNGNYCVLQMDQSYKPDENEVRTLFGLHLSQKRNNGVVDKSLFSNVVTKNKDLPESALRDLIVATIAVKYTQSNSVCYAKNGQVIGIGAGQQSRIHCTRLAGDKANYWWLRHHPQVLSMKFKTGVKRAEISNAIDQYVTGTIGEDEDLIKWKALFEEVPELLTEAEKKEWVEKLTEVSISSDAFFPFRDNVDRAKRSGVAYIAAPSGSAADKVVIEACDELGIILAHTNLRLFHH
Methionine synthase (Mus musculus), sequence (A6H5Y3 whole entry): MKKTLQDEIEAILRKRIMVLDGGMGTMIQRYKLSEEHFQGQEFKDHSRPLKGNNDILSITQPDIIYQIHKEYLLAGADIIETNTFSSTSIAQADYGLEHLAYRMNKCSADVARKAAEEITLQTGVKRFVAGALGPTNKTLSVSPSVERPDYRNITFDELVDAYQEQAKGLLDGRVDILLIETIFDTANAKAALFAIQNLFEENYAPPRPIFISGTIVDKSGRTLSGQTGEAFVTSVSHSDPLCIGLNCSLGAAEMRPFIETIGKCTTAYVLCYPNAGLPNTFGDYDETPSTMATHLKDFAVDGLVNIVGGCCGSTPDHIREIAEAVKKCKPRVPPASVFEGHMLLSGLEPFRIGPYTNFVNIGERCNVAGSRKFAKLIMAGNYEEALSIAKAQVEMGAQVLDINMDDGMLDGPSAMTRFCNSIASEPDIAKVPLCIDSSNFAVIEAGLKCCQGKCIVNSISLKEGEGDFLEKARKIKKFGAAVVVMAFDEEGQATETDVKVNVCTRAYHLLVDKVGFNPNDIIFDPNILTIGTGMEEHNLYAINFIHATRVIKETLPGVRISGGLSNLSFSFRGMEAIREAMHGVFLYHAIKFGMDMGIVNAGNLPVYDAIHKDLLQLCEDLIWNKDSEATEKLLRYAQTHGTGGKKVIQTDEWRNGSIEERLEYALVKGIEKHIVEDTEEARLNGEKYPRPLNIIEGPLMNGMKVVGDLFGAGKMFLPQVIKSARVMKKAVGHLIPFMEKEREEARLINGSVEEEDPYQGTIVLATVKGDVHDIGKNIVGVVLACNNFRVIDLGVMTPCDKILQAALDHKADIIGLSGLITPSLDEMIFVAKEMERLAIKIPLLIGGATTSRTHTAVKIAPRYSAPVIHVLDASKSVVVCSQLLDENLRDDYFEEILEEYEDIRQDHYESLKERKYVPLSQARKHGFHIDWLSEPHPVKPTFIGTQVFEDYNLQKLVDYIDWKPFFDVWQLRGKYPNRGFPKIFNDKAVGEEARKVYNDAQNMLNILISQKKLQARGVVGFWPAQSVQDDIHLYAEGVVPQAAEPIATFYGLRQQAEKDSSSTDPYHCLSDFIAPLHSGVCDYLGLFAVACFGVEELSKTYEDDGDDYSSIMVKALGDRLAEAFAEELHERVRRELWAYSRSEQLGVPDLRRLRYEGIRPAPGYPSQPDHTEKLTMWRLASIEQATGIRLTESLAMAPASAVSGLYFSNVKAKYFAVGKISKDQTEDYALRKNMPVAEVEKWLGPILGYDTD

SMILES | IC50 [7] [µM] | IC50 [8] [µM] | Inhibition [9] [%] | Ratio [10] | Inhibition [11] [%] | Km [12] [µM] | Relative Vmax [13] [%] | Inhibition [14] [%] | inhibition [17] [%] | inhibition [18] [%] | inhibition [19] [%] | inhibition [20] [%] | inhibition [21] [%] | other results
Nc1nc(N)c(CCCNc2ccc(C(=O)N[C@@H](CCC(=O)O)C(=O)O)cc2)c(=O)[nH]1 | – | – | – | – | – | – | – | – | – | – | – | – | – | IC50 [1]: 0.7 µM; IC50 [2]: 0.7 µM; IC50 [3]: 1.9 µM; IC50 [4]: 9.4 µM; IC50 [5]: 200 µM; IC50 [6]: 94 µM
CN(CCCc1c(N)nc(N)nc1O)c1ccc(C(=O)NC(CCC(=O)O)C(=O)O)cc1 (stereo not drawn) | 0.28 | 2 | – | – | – | – | – | – | – | – | – | – | – | –
Nc1nc(N)c2nc(CNc3ccc(C(=O)N[C@@H](CCC(=O)O)C(=O)O)cc3)cnc2n1 [AMINOPTERIN] | 0.0023 | 0.002 | 6 | 5.9 | 68 | 24.4 | 144 | 79 | – | – | – | – | – | Inhibition [15]: 0%
Nc1nc(N)c(CCCN(C=O)c2ccc(C(=O)NC(CCC(=O)O)C(=O)O)cc2)c(O)n1 (stereo not drawn) | – | 0.21 | – | – | – | – | – | – | 0 | 13 | 50 | 34 | 0 | inhibition [16]: 0%
Nc1nc(N)c(CCCNc2ccc(C(=O)NCC(=O)O)cc2)c(O)n1 | > 100 | > 100 | – | – | – | – | – | – | – | – | – | – | – | –
Nc1nc(N)c(CCCNc2ccc(C(=O)N[C@@H](CCC(=O)O)C(=O)O)cc2)c(O)n1 | 0.088 | 0.11 | 6 | 14.9 | 59 | 6.7 | 100 | 0 | 0 | 7 | 0 | 5 | 0 | IC50 [22]: 0.045 µM; IC50 [23]: 0.4 µM; IC50 [24]: 0.047 µM; IC50 [25]: 0.058 µM; IC50 [26]: 2.6 µM; inhibition [27]: 0%; inhibition [28]: 0%; IC50 [29]: 0.05 µM; Inhibition [30]: 0%; IC50 [31]: 0.037 µM; IC50 [32]: 3 µM; IC50 [33]: 0.26 µM; ILS at 7.5 mg/kg [34]: 40%; IC50 [35]: 0.34 µM; ILS at 5 mg/kg [36]: 22%; IC50 [37]: 0.08 µM; IC50 [38]: 0.043 µM; ILS at 75 mg/kg [39]: 0%; ILS at 10 mg/kg [40]: 80%
